Measured values reported in EP0610377B1, “TRI-SUBSTITUTED TETRAHYDROFURAN ANTIFUNGALS” (SCHERING CORPORATION, priority 1991, dated 1993).

Assays:
Assay type in all cases: in vivo
C. albicans C-65 = assay: Candida systemic model in normal and compromised CF1 mice infected with C. albicans C-65, oral treatment; conditions: normal and compromised mice; result in words (text refers to Tables II and V)
Method: (§1) The compounds of Examples 23-26 and itraconazole, fluconazole, and saperconazole were tested for in vivo oral antifungal activity in a Candida systemic model using CF1 male mice , average weight 20 g, Harlan Sprague Dawley, Inc., Indianapolis, Ind. infected by IV injection into the tail vein of C. albicans C-43 (5 million CFUs). The drugs were dissolved in polyethylene glycol-200 (PEG-200) and tested by orally administering 50, 25 and 10 mpk of each drug 4 hours post infection and once daily for 3 more days. Oral efficacy was measured after four (4) days by percent survival and by the number of organisms remaining in the kidneys i.e., the Colony Forming Units (CFUs). The mice were sacrificed and the kidneys of individual mice were homogenized in sterile saline, diluted and spread onto Mycosel agar. Colony counts were determined after 48 hours at 37°C. For calculation of geometric means, mice that died during the experiment were considered to have 10^9 CFUs/kidneys (based on numerous previous experiments).
The compounds of Examples 23-24 and itraconazole, fluconazole, were tested for in vivo oral antifungal anctivity in a Candida systemic model using normal and compromised CF1 mice infected with C. albicans C-65 (5 million CFUs). The procedure of Example 33 was followed. The drugs were dissolved in polyethylene glycol-200 ("PEG-200) at room temperature and tested by orally administering 100, 50, 25, 10 and 1 mpk of each drug. Oral efficacy was measured by percent survival and by the number of organisms remaining in the kidneys (CFUs) after four days. […] The pharmaceutical composition of the preferred compound of formula IIb of Eample 24 in hydroxypropyl beta cyclodextrin ("HPβCD") having 7.4 hydroxypropyl groups per HPβCD (obtained from Pharmatec, Inc., Alachua, FL 32615) was prepared by admixing the appropriate amount of the compound IIa with a 40% (w/v) solution of HPβCD (4 g of HPβCD per 10 mL of purified water). Gentle heating was used to form a clear solution. For the 10 mpk dose, 12 mg of Ha was added to 6 mL of a 40% w/v solution of HPβCD. For dilutions, sterile water was added to the solution with mixing. The pharmaceutical composition of itraconazole and the Pharmatec HPβCD described above was prepared as follows. Propylene glycol (10 mL) was admixed with 0.95 mL of concentrated HCI at 40°-45°C with stirring. Itraconazole (2.5 g) was added thereto and stirring was continued until homogeneous. The mixture so formed was cooled to 20° to 30°C and admixed with a solution of 60 g of HPβCD in 40 mL of purified water to form a clear solution. The pH was adjusted to a value of 1.9-2.1 with 10N NaOH and sufficient purified water added (with mixing) to a final volume of 100 mL. For dilutions, sterile water was added to the itraconazole - HPβCD.

Aspergillus flavus [1] = assay: Aspergillus flavus pulmonary infection model in compromised mice, oral treatment; conditions: for %SURVIVAL / %ANIMALS NEG: 18 days post infection; for %SURVIVAL: compromised CF-1 mice; for %ANIMALS NEG: negative = <10 colonies
Text: The in vivo oral antifungal activity of the compounds of Example 23-26 were compared to those of itraconazole, fluconazole and saperconazole in an Aspergillus pulmonary infection model in mice. The procedure of David Loebenberg et al. entitled "Sch 42427, The Active Enantiomer of Antifungal agent Sch 39304: In Vitro and In Vivo Activity" Antimicrobial Agents and Chemotherapy (1992), 36 498-501 was used. The Aspergillus flavus pulmonary model was run in the following manner Male, CF-1 mice weighing 20 grams were compromised with cortisone acetate (100 mg/kg), administered subcutaneously, once daily for 3 days. In addition, to prevent bacterial disease, tetracycline HCL (300 mg/1) was added to the drinking water and given ad libitum. On day 2 of compromising, mice were infected in an inhalation chamber, first described by Piggot and Emmons in 1960 and modified by us. The chamber is a 1 liter pyrex, thick-walled flask with 8 tubular side-arms that extend into the flask. Each side-arm is a pyrex tube of 14 cm length, constricted to a 1 cm opening inside the flask. The bottom of the flask was covered with a malt extract agar medium on which a sporulating culture of A. flavus ATCC 24133 was grown for 13 days at room temperature. The top of the flask was closed with a #10 stopper through which passed a glass tube attached by rubber tubing to a 60 mL syringe. Mice were placed in each of the side arms and pushed to the bottoms so that their nares extended beyond the open end of the tube and over the agar. Cotton plugs were then inserted behind the mice to hold them in place. By pumping the 60 mL syringe twice, air was forced over the culture and produced a cloud of spores. Mice were exposed to the spore cloud for one minute. Within 15-30 minutes after exposure, a number of mice were sacrificed and lung tissue samples homogenized for culture to determine the number of inhaled conidia. Oral treatment began 24 h post-infection with doses of 5 to 250 mg of drug/kg in ethanol; vehicle (115 ml of Emulphor EL-719P, GAF, Wayne, NJ; and 5 ml of 20% w/v lactic acid per liter of water), 10:90 v/v, once daily for 4 days.
The procedure of Example 31 was used to compare the in vivo oral antifungal activity of (±)-5R/S-(cis)-4-[4-[4-[4-[[5-(2,4-difluorophenyl)-5-(1H-1,2,4-triazol-1-ylmethyl) tetrahydrofuran-3-yl]methoxy-phenyl-1-piperazinyl]phenyl]-2,4-dihydro-2[(R/S)-(1-methylpropyl)]-3H-1,2,4-triazol-3-one with (±)-2R/S-(cis)-1-[4-[[2-(2,4-difluorophenyl)-2-(1H-1,2,4-triazol-1-ylmethyl) tetrahydro-4-furanyl]methoxy]phenyl]-4-(1-methylethyl)piperazine of Example 68 of USP 5,039,676 in an Aspergillus pulmonary infection model described in Example 31. […]
The procedures of Examples 31 and 34 were used.

Candida = Candida vaginal infection in a hamster model; conditions: result in words
Aspergillus flavus [2] = assay: Aspergillus flavus pulmonary infection model in compromised mice, oral treatment; conditions: 33 mg/kg PO [3RX/DAY] for 4 days, 18 days post infection
C. albicans C-43 = assay: Candida systemic model in CF1 mice infected IV with C. albicans C-43, oral treatment; conditions: for %SURVIVAL: day 4 post-infection; for CFUs (GM): day 4, geometric mean of the logarithms of CFU remaining in the kidneys (dead mice counted as 10^9)
Method: as §1, with “The drugs were dissolved in polyethylene glycol-200 (PEG-200) and tested by orally administering 50, 25 and 10 mpk of each drug 4 hours post infection and once daily for 3 more days.” left out

[3] = 33 mg/kg PO once a day for 4 days
[4] = 66 mg/kg PO once a day for 4 days
[5] = 100 mg/kg PO once a day for 4 days

SMILES | activity against systemic candidiasis compared with itraconazole and saperconazole (C. albicans C-65) | oral activity against Aspergillus flavus pulmonary infections compared with itraconazole, fluconazole and saperconazole (Aspergillus flavus [1]; in vivo mouse model, PO, result in words) | activity against a Candida vaginal infection compared with itraconazole and saperconazole (Candida) | %SURVIVAL (Aspergillus flavus [2]; compromised CF-1 mice) [%] | %ANIMALS NEG (Aspergillus flavus [2]; negative = <10 colonies) [%] | %SURVIVAL (Aspergillus flavus [1]; [3]) [%] | %ANIMALS NEG (Aspergillus flavus [1]; [3]) [%] | %SURVIVAL (Aspergillus flavus [1]; [4]) [%] | %ANIMALS NEG (Aspergillus flavus [1]; [4]) [%] | %SURVIVAL (Aspergillus flavus [1]; [5]) [%] | %ANIMALS NEG (Aspergillus flavus [1]; [5]) [%] | %SURVIVAL (C. albicans C-43; 10 MPK PO in PEG-200, 1 a day x 4 days) [%] | CFUs (GM) (C. albicans C-43; 10 MPK PO in PEG-200) | %SURVIVAL (C. albicans C-43; 25 MPK PO in PEG-200, 1 a day x 4 days) [%] | CFUs (GM) (C. albicans C-43; 25 MPK PO in PEG-200) | %SURVIVAL (C. albicans C-43; 50 MPK PO in PEG-200, 1 a day x 4 days) [%] | CFUs (GM) (C. albicans C-43; 50 MPK PO in PEG-200)
CCC(CC)n1ncn(-c2ccc(N3CCN(c4ccc(OC[C@@H]5CO[C@@](Cn6cncn6)(c6ccc(F)cc6F)C5)cc4)CC3)cc2)c1=O [IIc] | more active | more active orally | more active | – | – | – | – | – | – | – | – | – | – | – | – | – | –
CC[C@@H](C)n1ncn(-c2ccc(N3CCN(c4ccc(OC[C@H]5CO[C@](Cn6cncn6)(c6ccc(F)cc6F)C5)cc4)CC3)cc2)c1=O [Example 26, (+)-[(5S)-cis]-4-[4-[4-[4-[[5-(2,4-Difluorophenyl)-5-(1H-1,24-triazol-1-ylmethyl)tetrahydrofuran-3-yl]methoxy]phenyl]-1-piperazinyl]phenyl]-2,4-dihydro-2-[(1R)-(1-methylpropyl)]-3H-1,2,4-triazol-3-one] | – | – | – | 0 | 0 | 0 | 0 | 0 | 0 | 20 | 0 | 0 | 9.00 | 0 | 9.00 | 20 | 7.84
